Patent publication US7297714B2, “Inhibitors of cathepsin S” (IRM LLC, priority 2003, dated 2007)

Key:
Format in all cases: biochemical
[1] = molecular target: Cathepsin S (Homo sapiens, UniProt P25774); assay: Cathepsin S inhibition assay (fluorogenic peptide substrate); conditions: Cathepsin S inhibition constant; pH5.5; read-out: Ki Cat. S
Description: “Inhibition constant”, Ki, is the dissociation constant of the enzyme-inhibitor complex, or the reciprocal of the binding affinity of the inhibitor to the enzyme. For classical inhibition the value of Ki is much greater than the enzyme concentration and the Ki can be measured by monitoring the rate of reaction for a competitive substrate at multiple inhibitor concentrations. The inhibited rates are then fit by nonlinear regression to the following equation: […]
The assumption being made for the classical inhibition described above is that the free inhibitor concentration is equal to the total inhibitor concentration. For inhibitors that have Ki's that are approximately equal to the enzyme concentration [E], the assumption that the free inhibitor concentration is equal to the total inhibitor concentration is no longer valid and an alternative equation has to be fit for determination of the apparent inhibition constant, Ki^app using described methods (Kuzmic, P., K. C. Elrod, et al., Anal Biochem 2000, 286(1), 45-50):
(§1) The optimal substrate for cathepsin S, acetyl-histidine-proline-valine-lysine-amino carbamoyl coumarin, was identified from screening a combinatorial library of fluorogenic peptide substrates (Harris, J. L., B. J. Backes, et al., Proc Natl Acad Sci U S A 2000, 97(14), 7754-9). Kinetic measurements are performed in a total reaction volume of 30 μl in 384-well microtiter plates. Cathepsin S, at a final concentration of 0.3-3 nM (active site), is incubated with the compounds at twelve varying concentrations in a buffer containing 100 mM NaAc (pH5.5), 1 mM EDTA, 100 mM NaCl, 0.01% Brij-35 for 20 minutes at room temperature. Control reactions in the absence of inhibitor are performed in replicates of 24. The reactions are initiated by adding the substrate, acetyl-histidine-proline-valine-lysine-amino carbamoyl coumarin, to a final concentration of 50 μM. The rate of substrate hydrolysis is measured by monitoring the increase in fluorescence at an excitation wavelength of 380 nm and an emission wavelength of 450 nm that results from cleavage of the aniline bond in the substrate by the enzyme. The apparent inhibition constants for the compounds are determined from the enzyme progress curves (Kuzmic, P., K. C. Elrod, et al., Anal Biochem 2000, 286(1), 45-50) and are then used to calculate the inhibition constants for competitive inhibitors.

[2] = molecular target: T1, Cathepsin K (Homo sapiens, UniProt P43235); assay: Cathepsin K inhibition assay, selectivity for cathepsin S over cathepsin K; conditions: ratio of cathepsin K inhibition constant to cathepsin S inhibition constant
T1 sequence (P43235 115-329): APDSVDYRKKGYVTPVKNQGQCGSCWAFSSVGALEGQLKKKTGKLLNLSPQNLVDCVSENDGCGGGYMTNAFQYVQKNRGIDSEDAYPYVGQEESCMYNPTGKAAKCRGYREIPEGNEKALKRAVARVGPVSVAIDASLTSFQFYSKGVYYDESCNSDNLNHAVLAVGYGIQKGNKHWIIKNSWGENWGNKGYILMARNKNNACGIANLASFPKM
Experimental: as §1, with “cathepsin K, acetyl-lysine-histidine-proline-lysine-amino” for “cathepsin S, acetyl-histidine-proline-valine-lysine-amino”, “Sci USA” for “Sci U S A”, “Cathepsin K,” for “Cathepsin S,”, “of 3.5” for “of 0.3-3”, “substrate, acetyl-lysine-histidine-proline-lysine-amino” for “substrate, acetyl-histidine-proline-valine-lysine-amino”, “of 40” for “of 50”
(§2) Selectivity for cathepsin S in the presence of cathepsin isozymes was determined by the ratio of the cathepsin isozyme inhibition constant of a compound of the present invention to the cathepsin S inhibition constant of the same compound. Preferred compounds of the present invention selective for cathepsin S have ratios of greater than 10. More preferred compounds of the present invention selective for cathepsin S have ratios of greater than 100. Most preferred compounds of the present invention selective for cathepsin S have ratios of greater than 1000.

[3] = molecular target: Cathepsin L (Homo sapiens, UniProt P07711); assay: Cathepsin L inhibition assay, selectivity for cathepsin S over cathepsin L; conditions: ratio of cathepsin L inhibition constant to cathepsin S inhibition constant
Experimental: The optimal substrate for cathepsin L, acetyl-histidine-lysine-phenylalanine-lysine-amino carbamoyl coumarin, was identified from screening a combinatorial library of fluorogenic peptide substrates (Harris, J. L., B. J. Backes, et al.; Proc Natl Acad Sci USA 2000, 97(14), 7754-9). Kinetic measurements are performed in a total reaction volume of 30 μl in 384-well microtiter plates. Cathepsin L, at a final concentration of 0.1 nM (active site), is incubated with the compounds at twelve varying concentrations in a buffer containing 100 mM NaAc (pH5.5), 1 mM EDTA, 100 mM NaCl, 0.01% Brij-35 for 20 minutes at room temperature. Control reactions in the absence of inhibitor are performed in replicates of 24. The reactions are initiated by adding the substrate, acetyl-histidine-lysine-phenylalanine-lysine-amino carbamoyl coumarin, to a final concentration of 20 μM. The rate of substrate hydrolysis is measured by monitoring the increase in fluorescence at an excitation wavelength of 380 nm and an emission wavelength of 450 nm that results from cleavage of the aniline bond in the substrate by the enzyme. The apparent inhibition constants for the compounds are determined from the enzyme progress curves (Kuzmic, P., K. C. Elrod, et al., Anal Biochem 2000, 286(1), 45-50) and are then used to calculate the inhibition constants for competitive inhibitors.
as §2

[4] = molecular target: Cathepsin B (Homo sapiens, UniProt P07858); assay: Cathepsin B inhibition assay, selectivity for cathepsin S over cathepsin B; conditions: ratio of cathepsin B inhibition constant to cathepsin S inhibition constant
Experimental: as §1, with “cathepsin B,” for “cathepsin S,”, “Sci US” for “Sci U S”, “Cathepsin B,” for “Cathepsin S,”, “of 1.5” for “of 0.3-3”, “of 10” for “of 50”
as §2

Sequence of Cathepsin S (P25774 115-331, species assumed): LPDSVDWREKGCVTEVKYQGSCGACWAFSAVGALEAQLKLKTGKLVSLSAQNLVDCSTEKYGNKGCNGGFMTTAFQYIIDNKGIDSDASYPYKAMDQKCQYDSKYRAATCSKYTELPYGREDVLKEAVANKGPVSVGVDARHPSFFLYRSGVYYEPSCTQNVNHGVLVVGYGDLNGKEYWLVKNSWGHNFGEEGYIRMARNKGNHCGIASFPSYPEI
Sequence of Cathepsin L (P07711 114-333, species assumed): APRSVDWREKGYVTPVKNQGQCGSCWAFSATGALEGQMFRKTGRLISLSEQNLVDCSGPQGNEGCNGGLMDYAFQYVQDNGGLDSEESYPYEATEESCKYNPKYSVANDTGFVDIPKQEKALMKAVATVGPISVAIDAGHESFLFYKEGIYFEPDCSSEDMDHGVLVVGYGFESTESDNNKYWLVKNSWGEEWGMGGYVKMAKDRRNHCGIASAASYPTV

SMILES | Ki [1] | Selectivity for Cat. S over Cat. K [2] | Selectivity for Cat. S over Cat. L [3] | Selectivity for Cat. S over Cat. B [4]
CCOC1OC(=O)C[C@@H]1NC(=O)[C@H](CC1CCCC1)NC(=O)c1ccc(-c2cccc(F)c2)o1 (stereo partly drawn) [Example 12, (3S)-[3-Cyclopentyl-(2S)-{[5-(3-fluoro-phenyl)-furan-2-carbonyl]-amino}propionylamino]-2-ethoxy-5-oxo-tetrahydrofuran] | < 100 nM | + (+, >10) | ++ (++, >100) | ++ (++, >100)
CC(C)(C)C[C@H](NC(=O)C1CC1)C(=O)N[C@H]1CC(=O)OC1O (stereo partly drawn) [Example 22, (3S)-((2S)-(cyclopropylcarbonylamino)-4,4-dimethyl-pentanoylamino)-4-oxo-butyric acid] | < 100 nM | + (+, >10) | +++ (+++, >1000) | +++ (+++, >1000)
O=C1CC(NC(=O)C(CC2CCCC2)NC(=O)c2ccc(-c3cccc(F)c3)o2)C(OC2CCCC2)O1 [Example 26, (3S)-[3-Cyclopentyl-(2S)-{[5-(3-fluoro-phenyl)-furan-2-carbonyl]-amino}propionylamino]-2-cyclopentoxy-5-oxo-tetrahydrofuran] | < 100 nM | + (+, >10) | +++ (+++, >1000) | +++ (+++, >1000)
O=C1C[C@H](NC(=O)[C@H](CC2CCCC2)NC(=O)OC2CCOCC2)C(O)O1 (stereo partly drawn) [Example 20, (3S)-(3-Cyclopentyl-(2S)-(tetrahydro-pyran-4-yloxycarbonylamino)-propionylamino)-4-oxo-butyric acid] | < 100 nM | ++ (++, >100) | ++ (++, >100) | +++ (+++, >1000)
CCO[C@@H]1OC(=O)C[C@@H]1NC(=O)[C@H](CC(C)(C)C)NC(=O)OC(C)(C)C [Example 13, (3S)-[(2S)-t-butoxycarbonylamino-4,4-dimethyl-pentanoylamino]-(2R)-ethoxy-5-oxo-tetrahydrofuran] | < 1000 nM | – | + (+, >10) | ++ (++, >100)
O=C1C[C@H](NC(=O)[C@H](CC2CCCCC2)NC(=O)OCc2ccccc2)C(OCc2ccccc2)O1 (stereo partly drawn) [Example 11, (3S)-[(2S)-benzyloxycarbonylamino-3-cycohexyl-propionylamino]-2-benzyloxy-5-oxo-tetrahydrofuran] | < 100 nM | + (+, >10) | – | + (+, >10)

Second part, the compound after the results:

Ki [1] | Selectivity for Cat. S over Cat. K [2] | Selectivity for Cat. S over Cat. L [3] | Selectivity for Cat. S over Cat. B [4] | SMILES
< 100 nM | ++ (++, >100) | ++ (++, >100) | +++ (+++, >1000) | O=C1C[C@H](NC(=O)[C@H](CC2CCCCC2)NC(=O)c2ccc(-c3cccc(F)c3)o2)C(O)O1 (mixture of isomers) [Example 15, (3S)-(3-Cyclohexyl-(2S)-{[5-(3-fluoro-phenyl)-furan-2-carbonyl]-amino}-propionylamino)-4-oxo-butyric acid]
< 1000 nM | + (+, >10) | + (+, >10) | + (+, >10) | COC1OC(=O)C[C@@H]1NC(=O)[C@H](CC1CCCCC1)NC(=O)c1ccc(-c2cccc(F)c2)o1 (stereo partly drawn) [Example 16, (3S)-[3-Cyclohexyl-(2S)-{[5-(3-fluoro-phenyl)-furan-2-carbonyl]-amino}propionylamino]-2-methoxy-5-oxo-tetrahydrofuran]
< 100 nM | ++ (++, >100) | + (+, >10) | +++ (+++, >1000) | N#Cc1cccc(C(=O)N[C@@H](CC2CCCC2)C(=O)N[C@H]2CC(=O)OC2O)c1 (stereo partly drawn) [Example 18, (3S)-((2S)-(3-cyanophenyl-carbonylamino)-3-cyclopentyl-propionylamino)-4-oxo-butyric acid]
< 100 nM | ++ (++, >100) | +++ (+++, >1000) | +++ (+++, >1000) | O=C1C[C@H](NC(=O)[C@H](CC2CCCC2)NC(=O)c2ccc(-c3cccc(C(F)(F)F)c3)o2)C(O)O1 (stereo partly drawn) [Example 23, (3S)-(3-Cyclopentyl-(2S)-{[5-(3-trifluoromethyl-phenyl)-furan-2-carbonyl]-amino}-propionylamino)-4-oxo-butyric acid]
< 100 nM | ++ (++, >100) | + (+, >10) | +++ (+++, >1000) | O=C1C[C@H](NC(=O)[C@H](CC2CCCC2)NC(=O)c2cccc(C(F)(F)F)c2)C(O)O1 (stereo partly drawn) [Example 24, (3S)-(3-Cyclopentyl-(2S)-(3-trifluoromethylphenyl-carbonylamino)-propionylamino)-4-oxo-butyric acid]
